Here are results for one compound from patent publication US20250019339A1, “SOLVENT COMPOUNDS FOR USE AS REPLACEMENTS FOR SLOW EVAPORATING SOLVENTS” (TBF ENVIRONMENTAL TECHNOLOGY INC., priority 2018, published 2025).

Holding throughout (type): physicochemical
One data set is described as follows: Specific gravity.
Another data set is described as follows: Evaporation rate.
A short description of the next data set: Vapour pressure. Particulars: @25° C.
A further data set is described as follows: Boiling point.
A short description of data set [1]: Flash point, PMCC closed cup. The conditions noted are these: PMCC (Penske Martin Closed Cup). The method, then: (§1) (420.8° F.) • Flash Point: 85.5° C.
The nature of a further data set: Kauri-Butanol value.
Data set [2] is described as follows: Sustained combustion tests. The method, then:
as §1

Molecules are shown by their SMILES.

As for `CCCCC(CC)COC(=O)OC` (stereo not shown) [BibaSol, 2-ethylhexyl methyl carbonate], the “Specific Gravity” value in “Specific gravity” is reported as 0.916. In addition, the Evaporation rate in “Evaporation rate” worked out at 0.04. Besides, the Vapour pressure in the data set “Vapour pressure” is listed as 0.09 mm Hg. Moreover, in “Boiling point”, the “Boiling Point” value worked out at 216 °C. Further, the “Flash Point” value in data set [1] worked out at 85.5 °C. Further, the “Kauri-Butanol Value” in “Kauri-Butanol value” was 77.5. Moreover, the Sustained combustion result in data set [2] is listed as “did not sustain combustion”.
